We go through 4 compounds from US11117869B2, “Compounds, compositions and methods for treatment of myopia” (Aerie Pharmaceuticals, Inc., priority 2019, dated 2021).

Test [1] in a line: Topical eye drop composition (Table 3): intraocular pressure. The format is in vivo.
Test [2] is described as follows: Topical eye drop composition (Table 3): allergic symptoms, dry eye, hyperemia, irritation.
In test [3] the test system is myopia. Briefly: Topical eye drop composition (Table 3): myopia progression or onset. The conditions noted are these: drop 2 times per day, human subject.

`CN1C2CCC1CC(NC(=O)[C@H](CN)c1ccc(CO)cc1)C2` (stereo partly drawn) [Compound E20S, (S)-3-amino-2-(4-(hydroxymethyl)phenyl)-N-((1R,3-endo,5S)-8-methyl-8-azabicyclo[3.2.]octan-3-yl)propanamide ditosylate]: the intraocular pressure result in test [1] is listed as “substantially decreases”. In test [2] (in vivo), the allergic symptoms result was “substantially decreases”.
Take `CN1C2CCC1CC(OC(=O)C(CO)c1cccc(Cl)c1)C2` (centres unmarked) [Compound E21]: the intraocular pressure entry in test [1] is recorded as “substantially decreases”.
For the compound `CN1C2CCC1CC(OC(=O)C(C)(CO)c1ccccc1)C2` (centres unmarked) [Compound E22R], in test [2] (drop as needed), the “hyperemia, redness and ocular irritation” value is “substantially decreases”.
In the case of `CN1C2CCC1CC(NC(=O)C(CO)c1ccccc1)C2` (centres unmarked) [Compound E23], the “rate of myopia progression” value in test [3] is recorded as “substantially decreases”.
